The target of one assay is CK1δ (Homo sapiens (Human), UniProt P48730). The assay can be described thus: CK1δ kinase assay (Caliper LABCHIP electrophoretic separation of fluoresceinated peptide substrate and product). The format is biochemical. As to conditions: 200 pM CK1δ, 50 μM ATP, 1.5 μM peptide substrate, 22 hours at room temperature; read-out: CK1δ (IC50). The method in brief:
(§1)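 Compounds, taken from 10 mM DMSO stocks, are titrated at eleven concentrations. Kinase reactions proceed for 22 hours at room temperature and are quenched with EDTA. Substrate and product are resolved electrophoretically, and IC50 values are fitted by non-linear regression.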

Another assay concerns the target CK1ε (Homo sapiens (Human), UniProt P49674). The assay can be described thus: CK1ε kinase assay (Caliper LABCHIP electrophoretic separation of fluoresceinated peptide substrate and product). Type of assay: biochemical. As to conditions: read-out: CK1ε (IC50). Summed up:
as §1

[1] abbreviates: 200 pM CK1ε, 50 μM ATP, 1.5 μM peptide substrate, 22 hours at room temperature.

Read-outs that look alike come from different tables or passages of the source.

Chain of CK1δ (P48730 whole entry): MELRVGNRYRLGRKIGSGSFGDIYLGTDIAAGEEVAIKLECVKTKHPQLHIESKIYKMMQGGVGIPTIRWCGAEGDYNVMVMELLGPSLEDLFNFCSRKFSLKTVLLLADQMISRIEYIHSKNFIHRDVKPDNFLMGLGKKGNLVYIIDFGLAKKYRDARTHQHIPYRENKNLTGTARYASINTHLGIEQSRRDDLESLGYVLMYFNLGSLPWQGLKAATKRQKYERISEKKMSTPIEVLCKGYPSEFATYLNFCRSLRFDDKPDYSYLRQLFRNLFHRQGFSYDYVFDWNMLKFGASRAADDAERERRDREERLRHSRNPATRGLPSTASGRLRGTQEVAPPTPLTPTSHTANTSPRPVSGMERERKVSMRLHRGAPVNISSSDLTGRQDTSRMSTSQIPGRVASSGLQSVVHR
Chain of CK1ε (P49674 whole entry): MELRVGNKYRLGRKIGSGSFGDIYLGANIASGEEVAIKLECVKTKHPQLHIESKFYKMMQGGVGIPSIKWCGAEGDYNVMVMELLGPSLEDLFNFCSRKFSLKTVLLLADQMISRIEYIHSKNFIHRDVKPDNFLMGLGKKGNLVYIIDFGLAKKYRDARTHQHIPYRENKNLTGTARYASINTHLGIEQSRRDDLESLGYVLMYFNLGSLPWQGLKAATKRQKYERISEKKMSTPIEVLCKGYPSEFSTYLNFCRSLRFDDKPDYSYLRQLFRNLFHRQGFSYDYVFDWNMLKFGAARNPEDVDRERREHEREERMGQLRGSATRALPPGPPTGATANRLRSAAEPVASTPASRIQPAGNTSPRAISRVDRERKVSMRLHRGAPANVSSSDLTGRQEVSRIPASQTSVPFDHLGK

For `COc1cccc(NC(=O)N2CCn3nc(-c4cccc(Cl)c4)c(C(N)=O)c3C2)c1` [Compound 170, 2-(3-Chlorophenyl)-N^5-(3-methoxyphenyl)-6,7-dihydropyrazolo[1,5-a] pyrazine-3,5(4H)-dicarboxamide], the IC50 on CK1δ and on CK1ε (setting [1]) was 0.01 to 10 nM each time.

On to `COc1ccc(NC(=O)N2CCn3nc(-c4cccc(F)c4)c(C(N)=O)c3C2)cc1` [Compound 51, 2-(3-Fluorophenyl)-N^5-(4-methoxyphenyl)-6,7-dihydropyrazolo[1,5-a]pyrazine-3,5(4H)-dicarboxamide], for which the IC50 at CK1δ and on CK1ε (setting [1]) was 0.01 to 10 nM throughout.

On to `Cc1cc(C)cc(-c2nn3c(c2C(N)=O)CN(C(=O)Nc2ccc(C#N)cc2)CC3)c1` [Compound 275, N^5-(4-Cyanophenyl)-2-(3,5-dimethylphenyl)-6,7-dihydropyrazolo[1,5-a] pyrazine-3,5(4H)-dicarboxamide], for which the IC50 at CK1δ and at CK1ε (setting [1]) was 0.01 to 10 nM each time.

For `NC(=O)c1c(-c2cccc(F)c2)nn2c1CN(C(=O)Nc1cc(C(F)(F)F)cc(C(F)(F)F)c1)CC2` [Compound 53, N^5-(3,5-Bis(trifluoromethyl)phenyl)-2-(3-fluorophenyl)-6,7-dihydropyrazolo[1,5-a]pyrazine-3,5(4H)-dicarboxamide], the IC50 on CK1δ and at CK1ε (setting [1]) was 0.01 to 10 nM throughout.

For `NC(=O)c1c(-c2ccc(F)c(Cl)c2)nn2c1CN(C(=O)Nc1cccc(F)c1)CC2` [Compound 186, 2-(3-Chloro-4-fluorophenyl)-N^5-(3-fluorophenyl)-6,7-dihydropyrazolo[1,5-a] pyrazine-3,5(4H)-dicarboxamide], the IC50 at CK1δ and on CK1ε (setting [1]) was 0.01 to 10 nM throughout.

Regarding `NC(=O)c1c(-c2cccc(Cl)c2)nn2c1CN(C(=O)Nc1ccc(F)c(F)c1)CC2` [Compound 156, 2-(3-Chlorophenyl)-N^5-(3,4-difluorophenyl)-6,7-dihydropyrazolo[1,5-a]pyrazine-3,5(4H)-dicarboxamide], the IC50 at CK1δ and at CK1ε (setting [1]) was 0.01 to 10 nM throughout.

As for `CS(=O)(=O)c1ccc(NC(=O)N2CCn3nc(-c4ccc(F)c(Cl)c4)c(C(N)=O)c3C2)nc1` [Compound 195, 2-(3-Chloro-4-fluorophenyl)-N^5-(5-(methylsulfonyl)pyridin-2-yl)-6,7-dihydropyrazolo[1,5-a] pyrazine-3,5(4H)-dicarboxamide], the IC50 at CK1δ and on CK1ε (setting [1]) was 0.01 to 10 nM each time.

As for `N#Cc1ccc(NC(=O)N2CCn3nc(-c4ccc(Cl)c(Cl)c4)c(C(N)=O)c3C2)cc1C(F)(F)F` [Compound 208, N^5-(4-Cyano-3-(trifluoromethyl)phenyl)-2-(3,4-dichlorophenyl)-6,7-dihydropyrazolo[1,5-a] pyrazine-3,5(4H)-dicarboxamide], the IC50 at CK1δ and at CK1ε (setting [1]) was 0.01 to 10 nM in each case.

Consider `NC(=O)c1c(-c2ccc(F)c(Cl)c2)nn2c1CN(C(=O)Nc1cccc(F)c1F)CC2` [Compound 191, 2-(3-Chloro-4-fluorophenyl)-N^5-(2,3-difluorophenyl)-6,7-dihydropyrazolo[1,5-a] pyrazine-3,5(4H)-dicarboxamide], for which the 50% inhibitory concentration (IC50) at CK1δ and on CK1ε (setting [1]) was 0.01 to 10 nM throughout.

Consider `NC(=O)c1c(-c2cccc(F)c2)nn2c1CN(C(=O)Nc1ccc(Oc3ccccc3)cc1)CC2` [Compound 58, 2-(3-Fluorophenyl)-N^5-(4-phenoxyphenyl)-6,7-dihydropyrazolo[1,5-a]pyrazine-3,5(4H)-dicarboxamide], for which the IC50 on CK1δ and on CK1ε (setting [1]) was 0.01 to 10 nM in each case.

In the case of `NC(=O)c1c(-c2cccc(F)c2)nn2c1CN(C(=O)Nc1cccc(F)c1)CC2` [Compound 77, N^5,2-Bis(3-fluorophenyl)-6,7-dihydropyrazolo[1,5-a]pyrazine-3,5(4H)-dicarboxamide], the IC50 at CK1δ and at CK1ε (setting [1]) was 0.01 to 10 nM each time.

For the molecule `CC(C)(C)NC(=O)N1CCn2nc(-c3cnc4ccccc4c3)c(C(N)=O)c2C1` [Compound 119, N^5-(tert-Butyl)-2-(quinolin-3-yl)-6,7-dihydropyrazolo[1,5-a]pyrazine-3,5(4H)-dicarboxamide], the IC50 on CK1δ and on CK1ε (setting [1]) was 0.01 to 10 nM throughout.

On to `N#Cc1ccc(NC(=O)N2Cc3c(C(N)=O)c(-c4ccc(F)c(Cl)c4)nn3C(C(=O)NC3CCOCC3)C2)cc1` (single isomer, unassigned) [Compound A29, 2-(3-Chloro-4-fluorophenyl)-N^5-(4-cyanophenyl)-N^7-(tetrahydro-2H-pyran-4-yl)-6,7-dihydropyrazolo[1,5-a]pyrazine-3,5,7(4H)-tricarboxamide], for which the IC50 at CK1δ and at CK1ε (setting [1]) was 10 to 100 nM in each case.

In the case of `Cc1cc(F)cc(-c2nn3c(c2C(N)=O)CN(C(=O)Nc2ccc(C#N)c(F)c2)CC3)c1` [Compound 224, N^5-(4-Cyano-3-fluorophenyl)-2-(3-fluoro-5-methylphenyl)-6,7-dihydropyrazolo[1,5-a] pyrazine-3,5(4H)-dicarboxamide], the IC50 on CK1δ and on CK1ε (setting [1]) was 0.01 to 10 nM in each case.

Take `Cc1cc(NC(=O)N2CCn3nc(-c4cc(Cl)c5ocnc5c4)c(C(N)=O)c3C2)ccc1C#N` [Compound 310, 2-(7-Chlorobenzo[d]oxazol-5-yl)-N^5-(4-cyano-3-methylphenyl)-6,7-dihydropyrazolo[1,5-a]pyrazine-3,5(4H)-dicarboxamide]: the IC50 at CK1δ and at CK1ε (setting [1]) was 0.01 to 10 nM in each case.

`N#Cc1ccc(NC(=O)N2Cc3c(C(N)=O)c(-c4cccc(Cl)c4)nn3C3(CC3)C2)cc1` [Compound A86, 2′-(3-Chlorophenyl)-N^5′-(4-cyanophenyl)-4′H-spiro[cyclopropane-1,7′-pyrazolo[1,5-a]pyrazine]-3′,5′(6′H)-dicarboxamide]: the IC50 on CK1δ and at CK1ε (setting [1]) was 0.01 to 10 nM throughout.

For the molecule `Cc1cc(NC(=O)N2CCn3nc(-c4ccc(F)c(Cl)c4)c(C(N)=O)c3C2)ccc1C#N` [Compound A48, 2-(3-Chloro-4-fluorophenyl)-N^5-(4-cyano-3-methylphenyl)-6,7-dihydropyrazolo[1,5-a]pyrazine-3,5(4H)-dicarboxamide], the IC50 at CK1δ and on CK1ε (setting [1]) was 0.01 to 10 nM each time.

As for “N-(tert-Butyl)-2-(3,4-dichlorophenyl)-7-methyl-6,7-dihydropyrazolo[1,5-a]pyrazine-3,5(4H)-dicarboxamide [Compound A32]”, the IC50 at CK1δ and on CK1ε (setting [1]) was 0.01 to 10 nM throughout.

On to `C[C@H]1CN(C(=O)Nc2ccc(C#N)cc2)Cc2c(C(N)=O)c(-c3cccc(F)c3)nn21` (single isomer, unassigned) [Compound A78, N^5-(4-Cyanophenyl)-2-(3-fluorophenyl)-7-methyl-6,7-dihydropyrazolo[1,5-a]pyrazine-3,5(4H)-dicarboxamide], for which the IC50 at CK1δ and on CK1ε (setting [1]) was 0.01 to 10 nM each time.

On to `Cc1cc(F)cc(-c2nn3c(c2C(N)=O)CN(C(=O)Nc2ccc(C#N)c(C(F)(F)F)c2)CC3)c1` [Compound 229, N^5-(4-Cyano-3-(trifluoromethyl)phenyl)-2-(3-fluoro-5-methylphenyl)-6,7-dihydropyrazolo[1,5-a] pyrazine-3,5(4H)-dicarboxamide], for which the IC50 at CK1δ and at CK1ε was 0.01 to 10 nM in each case.

For `NC(=O)c1c(-c2cccc(F)c2)nn2c1CN(C(=O)Nc1ccc(F)cc1)CC2` [Compound 16, 2-(3-Fluorophenyl)-N^5-(4-fluorophenyl)-6,7-dihydropyrazolo[1,5-a]pyrazine-3,5(4H)-dicarboxamide], the 50% inhibitory concentration (IC50) at CK1δ and on CK1ε (setting [1]) was 0.01 to 10 nM each time.

The IC50 is the concentration that inhibits the measured activity by half.

Source of the values: US9598423B2 (BRISTOL-MYERS SQUIBB COMPANY, priority 2013, dated 2017).
